Measured values as given in patent US20240123013A1, “SUPPLEMENT FOR ARTHRITIS AND PSORIASIS” (priority 2021, published 2024).

Assay: Comparison of arthritis gel compositions formulated with different crystalline CBDs (Example 12)
Settings: gels differ only in the crystalline CBD used
Experimental: Two hydroalcoholic arthritis gel compositions are prepared according to Example 2, the only difference being that the crystalline CBD used in the formulation is either of type A (needle-like crystals; FIG. 1) or type B (bunch/cluster-like; FIG. 2).

C=C(C)[C@@H]1CCC(C)=C[C@H]1c1c(O)cc(CCCCC)cc1O [type A CBD, cannabidiol]
Activity of CBD in hydroalcoholic arthritis gel, crystal type A versus type B: significantly more active than type B CBD | Activity of CBD in hydroalcoholic arthritis gel, crystal type A versus type B (listed as crystal structure A): significantly more potent
